The assay has as its target PolQ ATPase enzyme (1-894) (Homo sapiens (Human), UniProt O75417). Nature of the assay: Polθ ATPase enzymatic assay (0.5 nM enzyme concentration), ADP-Glo. The format is biochemical. To be noted: 0.5 nM PolQ ATPase enzyme (1-894); average IC50. On the procedure:
PolQ ATPase enzyme (1-894) at 0.5 nM is incubated with a 10-point concentration response of inhibitors for 15 min at rt in the following buffer: 50 mM Tris Cl pH 7.5, 10% glycerol, 5 mM DTT, 10 mM MgCl2, 0.1 mg/ml BSA. Following pre-incubation with inhibitors, DNA (Fork C) at 20 nM and ATP at 100 μM are added to start the reaction. Enzymatic reaction proceeds at rt for 180 min. ATP consumption is measured using the ADP-Glo assay from Promega. Luminescence is read on the Envision and IC50 are determined using the variable slope 4-parameters equation.
Oligos are annealed by heating at 95° C. for 5 min in the following buffer (10 mM Tris-HCl PH7.5, 50 mM NaCl, 1 mM EDTA) and cooled to rt. […]

PolQ ATPase enzyme (1-894), sequence (O75417 1-894): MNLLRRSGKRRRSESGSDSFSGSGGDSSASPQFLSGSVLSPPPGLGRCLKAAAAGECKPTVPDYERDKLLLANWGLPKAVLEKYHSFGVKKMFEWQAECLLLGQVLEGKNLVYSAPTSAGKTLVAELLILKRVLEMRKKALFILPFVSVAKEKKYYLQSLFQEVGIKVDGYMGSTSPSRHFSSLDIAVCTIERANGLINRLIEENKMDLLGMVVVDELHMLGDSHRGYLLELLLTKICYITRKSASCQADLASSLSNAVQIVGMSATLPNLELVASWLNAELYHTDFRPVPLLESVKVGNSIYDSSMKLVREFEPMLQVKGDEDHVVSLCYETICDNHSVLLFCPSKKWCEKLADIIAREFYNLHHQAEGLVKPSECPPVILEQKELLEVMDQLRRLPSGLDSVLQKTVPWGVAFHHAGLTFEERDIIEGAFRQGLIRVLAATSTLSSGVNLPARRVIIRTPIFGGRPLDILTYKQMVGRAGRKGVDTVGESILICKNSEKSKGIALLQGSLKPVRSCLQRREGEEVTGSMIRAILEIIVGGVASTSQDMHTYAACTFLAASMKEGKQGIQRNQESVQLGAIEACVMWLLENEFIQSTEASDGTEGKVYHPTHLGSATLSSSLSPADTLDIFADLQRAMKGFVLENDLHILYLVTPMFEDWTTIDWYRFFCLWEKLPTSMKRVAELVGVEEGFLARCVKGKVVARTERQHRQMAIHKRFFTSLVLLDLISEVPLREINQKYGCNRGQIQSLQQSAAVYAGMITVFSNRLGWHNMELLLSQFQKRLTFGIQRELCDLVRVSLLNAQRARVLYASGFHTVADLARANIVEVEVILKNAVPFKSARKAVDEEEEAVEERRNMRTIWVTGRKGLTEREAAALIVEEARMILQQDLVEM

Take `COc1cnc(C(F)F)cc1-c1cc(N2CCN(CC(F)(F)F)C3(CC3)C2=O)ncc1C(=O)Nc1nnc(C#CC2CC2)s1` [Compound 515]: the 50% inhibitory concentration (IC50) came to 2.7 nM.
As to `COc1cnc(C(F)F)cc1-c1cc(N2CCN(C(=O)C(C)(C)C)C3(CC3)C2=O)ncc1C(=O)Nc1nnc(C#CC2CC2)s1` [Compound 516], the IC50 was found to be 0.39 nM.
The result for `C#Cc1nnc(NC(=O)c2cnc(-n3ccc(C)cc3=O)cc2-c2cc(C(F)F)ncc2OC)s1` [Compound 518] reads 1.4 nM; that for `COc1cnc(C(F)F)cc1-c1cc(-c2ccn(C)c(=O)c2)ncc1C(=O)Nc1nnc(C#CC2CC2)s1` [Compound 519], 12 nM.
In the case of `COc1cnc(C(F)F)cc1-c1cc(N2CCN(C=O)C3(CC3)C2=O)ncc1C(=O)Nc1nnc(C#CC2CC2)s1` [Compound 520], the midpoint of inhibition, the IC50, lay at 0.27 nM.
Molecule `COc1cnc(C(F)F)cc1-c1cc(N2CCCCS2(=O)=O)ncc1C(=O)Nc1nnc(C#CC2CC2)s1` [Compound 521] came in with an IC50 of 15 nM.
`COc1cnc(C(F)F)cc1-c1cc(-n2ccc(N3CCOCC3)cc2=O)ncc1C(=O)Nc1nnc(C#CC2CC2)s1` [Compound 522] yielded a half-inhibitory concentration (IC50) of under 0.25 nM.
The result for `COc1cnc(C(F)F)cc1-c1cc(-c2ccc(=O)n(C)c2)ncc1C(=O)Nc1nnc(C#CC2CC2)s1` [Compound 524] reads 2.3 nM; that for `COc1cncc(-c2cc(-c3cc(C(F)F)ncc3OC)c(C(=O)Nc3nnc(C#CC4CC4)s3)cn2)c1` [Compound 525], 1.3 nM; that for `COc1cnc(C(F)F)cc1-c1cc(Oc2cc(N3CCOCC3)ccn2)ncc1C(=O)Nc1nnc(C#CC2CC2)s1` [Compound 526], 1.5 nM.
`COc1cnc(C(F)F)cc1-c1cc(C#CC(C)(C)N2CCOCC2)ncc1C(=O)Nc1nnc(C#CC2CC2)s1` [Compound 528] gave a 50% inhibitory concentration (IC50) of 0.44 nM.
On to `COc1cnc(C(F)F)cc1-c1cc(C#CCN2C[C@@H](C)O[C@@H](C)C2)ncc1C(=O)Nc1nnc(C#CC2CC2)s1` [Compound 529], for which the 50% inhibitory concentration (IC50) turned out to be 0.59 nM.
The result for `COc1cnc(C(F)F)cc1-c1cc(-n2ccncc2=O)ncc1C(=O)Nc1nnc(C#CC2CC2)s1` [Compound 531] reads 0.27 nM.
Take `COc1cnc(C(F)F)cc1-c1cc(-n2ccc(C)cc2=O)ncc1C(=O)Nc1nnc(C2CC2)s1` [Compound 532]: the IC50 amounted to 1.7 nM.
Regarding `COc1ncc(-c2cc(-c3cc(C(F)F)ncc3OC)c(C(=O)Nc3nnc(C#CC4CC4)s3)cn2)cn1` [Compound 533], it took 1.6 nM to reach half-maximal inhibition (IC50).
With `COc1cnc(C(F)F)cc1-c1cc(-n2ccc(C)cc2=O)ncc1C(=O)Nc1nnc([C@H]2C[C@@H]2C(F)(F)F)s1` [Compound 534], 0.95 nM corresponded to half-maximal inhibition (IC50).
The result for `COc1cnc(C(F)F)cc1-c1cc(-n2ccc(N3CCN(C)CC3)cc2=O)ncc1C(=O)Nc1nnc(C#CC2CC2)s1` [Compound 535] reads 0.73 nM.
The result for `COc1cnc(C(F)F)cc1-c1cc(-n2ccc(C3CCN(C)CC3)cc2=O)ncc1C(=O)Nc1nnc(C#CC2CC2)s1` [Compound 536] reads 0.96 nM; that for `COc1cnc(C(F)F)cc1-c1cc(-n2ccc(N(C)C)cc2=O)ncc1C(=O)Nc1nnc(C#CC2CC2)s1` [Compound 537], 0.44 nM; that for `COc1ccc(-c2cc(-c3cc(C(F)F)ncc3OC)c(C(=O)Nc3nnc(C#CC4CC4)s3)cn2)c(OC)n1` [Compound 538], 5.7 nM.
Molecule `COc1cnc(C(F)F)cc1-c1cc(C#CCN2CCN(C)CC2)ncc1C(=O)Nc1nnc(C#CC2CC2)s1` [Compound 540] registered an IC50 of 1 nM.
As for `COc1cnc(C(F)F)cc1-c1cc(C#CCCN2CCOCC2)ncc1C(=O)Nc1nnc(C#CC2CC2)s1` [Compound 541], the half-maximal inhibitory concentration (IC50) came out at 0.55 nM.
The figure for `COc1cnc(C(F)F)cc1-c1cc(C#CCN2CCOCC2=O)ncc1C(=O)Nc1nnc(C#CC2CC2)s1` [Compound 542] is 0.29 nM; for `COc1cnc(C(F)F)cc1-c1cc(C=C=CN2CCOCC2=O)ncc1C(=O)Nc1nnc(C#CC2CC2)s1` [Compound 543] it is 51 nM.
The figure for `COc1cnc(C(F)F)cc1-c1cc(-n2ccc(C)cc2=O)ncc1C(=O)Nc1nnc([C@H]2C[C@@H]2F)s1` [Compound 544] is 1.9 nM.
The figure for `COc1cnc(C(F)F)cc1-c1cc(-n2ccc(C)cc2=O)ncc1C(=O)Nc1nnc([C@H]2C[C@@H]2C)s1` [Compound 545] is 1.1 nM.
Regarding `C#C[C@H]1C[C@@H]1c1nnc(NC(=O)c2cnc(-n3cc(C)ccc3=O)cc2-c2cc(C(F)F)ncc2OC)s1` [Compound 546], the IC50 was under 0.25 nM.
Regarding `C#C[C@H]1C[C@@H]1c1nnc(NC(=O)c2cnc(-n3cccc(C)c3=O)cc2-c2cc(C(F)F)ncc2OC)s1` [Compound 547], the IC50 was under 0.25 nM.
The result for `C#C[C@H]1C[C@@H]1c1nnc(NC(=O)c2cnc(-n3ccc(N4CCN(C)CC4)cc3=O)cc2-c2cc(C(F)F)ncc2OC)s1` [Compound 548] reads 0.79 nM; that for `COc1cnc(C(F)F)cc1-c1cc(C#CC(C)(C)N2CCN(C)CC2)ncc1C(=O)Nc1nnc(C#CC2CC2)s1` [Compound 549], 1.5 nM.
Turning to `COc1cnc(C(F)F)cc1-c1cc(C#CCN2CCCC2=O)ncc1C(=O)Nc1nnc(C#CC2CC2)s1` [Compound 550], the IC50 is under 0.25 nM.
The result for `COc1cnc(C(F)F)cc1-c1cc(-n2cc(C)ccc2=O)ncc1C(=O)Nc1nnc([C@H]2C[C@@H]2C(F)(F)F)s1` [Compound 551] reads 0.47 nM; that for `COc1cnc(C(F)F)cc1-c1cc(-n2cccc(C)c2=O)ncc1C(=O)Nc1nnc([C@H]2C[C@@H]2C(F)(F)F)s1` [Compound 552], 0.45 nM; that for `COc1cnc(C(F)F)cc1-c1cc(C#CC(C)(C)N2CCCCC2)ncc1C(=O)Nc1nnc(C#CC2CC2)s1` [Compound 553], 0.5 nM.
The result for `COc1cnc(C(F)F)cc1-c1cc(C#CC2(N)CC2)ncc1C(=O)Nc1nnc(C#CC2CC2)s1` [Compound 554] reads under 0.25 nM; that for `COc1cnc(C(F)F)cc1-c1cc(C#CC2CCN(C)CC2)ncc1C(=O)Nc1nnc(C#CC2CC2)s1` [Compound 555], 1 nM; that for `COc1cnc(C(F)F)cc1-c1cc(C#CCNCC(F)(F)F)ncc1C(=O)Nc1nnc(C#CC2CC2)s1` [Compound 558], under 0.25 nM.
For `COc1cnc(C(F)F)cc1-c1cc(C#CCN2CCNC2=O)ncc1C(=O)Nc1nnc(C#CC2CC2)s1` [Compound 559], the 50% inhibitory concentration (IC50) was under 0.25 nM.
The result for `COc1cnc(C(F)F)cc1-c1cc(C#CC(C)(C)N2CC(C)(C)C2)ncc1C(=O)Nc1nnc(C#CC2CC2)s1` [Compound 560] reads 1.15 nM.
As for `COc1cnc(C(F)F)cc1-c1cc(C#CCN2C(=O)CCC2=O)ncc1C(=O)Nc1nnc(C#CC2CC2)s1` [Compound 561], the half-maximal inhibitory concentration (IC50) was over 100 nM.
Molecule `C#C[C@H]1C[C@@H]1c1nnc(NC(=O)c2cnc(-n3cccc(F)c3=O)cc2-c2cc(C(F)F)ncc2OC)s1` [Compound 562, 2″-(difluoromethyl)-N-(5-((1S,2S)-2-ethynylcyclopropyl)-1,3,4-thiadiazol-2-yl)-3-fluoro-5″-methoxy-2-oxo-2H-[1,2′:4′,4″-terpyridine]-5′-carboxamide] displayed a concentration for half-maximal inhibition (IC50) of under 0.25 nM.
`COc1cnc(C(F)F)cc1-c1cc(-n2ccc(C)cc2=O)ncc1C(=O)Nc1nnc([C@H]2C[C@@H]2c2ccc(C#N)cc2)s1` [Compound 563]: the half-maximal inhibitory concentration (IC50) is under 0.25 nM.
The result for `CCOC(=O)N1CCN(c2cc(-c3cc(C(F)F)ncc3OC)c(C(=O)Nc3nnc(C#CC4CC4)s3)cn2)C(=O)C12CC2` [Compound 564] reads 0.38 nM; that for `C#C[C@H]1C[C@@H]1c1nnc(NC(=O)c2cnc(N3CCN(C(=O)OCC)C4(CC4)C3=O)cc2-c2cc(C(F)F)ncc2OC)s1` [Compound 565], 1.1 nM; that for `COc1cnc(C(F)F)cc1-c1cc(-n2ccc(C)cc2=O)ncc1C(=O)Nc1nnc(C2CC3(CCC3)C2)s1` [Compound 566], 2 nM.
Turning to `COc1cnc(C(F)F)cc1-c1cc(-n2ccc(C)cc2=O)ncc1C(=O)Nc1nnc(C2CC(C)(C)C2)s1` [Compound 567], half-maximal inhibition (IC50) was put at 4.3 nM.
The result for `COc1cnc(C(F)F)cc1-c1cc(-n2ccc(C)cc2=O)ncc1C(=O)Nc1nnc(CC(C)(C)OC)s1` [Compound 568] reads 45 nM; that for `C#C[C@H]1C[C@@H]1c1nnc(NC(=O)c2cnc(-n3ccc(CO)cc3=O)cc2-c2cc(C(F)F)ncc2OC)s1` [Compound 571], under 0.25 nM; that for `C#C[C@H]1C[C@@H]1c1nnc(NC(=O)c2cnc(C#CCN3CCOCC3)cc2-c2cc(C(F)F)ncc2OC)s1` [Compound 573], 1 nM.
The figure for `C#C[C@H]1C[C@@H]1c1nnc(NC(=O)c2cnc(N3CCN(C)C4(CC4)C3=O)cc2-c2cc(C(F)F)ncc2OC)s1` [Compound 574] is 1.1 nM.
`C#C[C@H]1C[C@@H]1c1nnc(NC(=O)c2cnc(-n3cccc(C(F)(F)F)c3=O)cc2-c2cc(C(F)F)ncc2OC)s1` [Compound 575] registered an IC50 of 0.32 nM. Against the preceding molecule, the IC50 is about 3.4-fold lower.
The result for `COc1cnc(C(F)F)cc1-c1cc(-n2ccc(C)cc2=O)ncc1C(=O)Nc1nnc(C(C)(C)OC)s1` [Compound 576] reads 29 nM; that for `C#C[C@H]1C[C@@H]1c1nnc(NC(=O)c2cnc(Oc3cc(Cl)ccn3)cc2-c2cc(C(F)F)ncc2OC)s1` [Compound 577], under 0.25 nM.
The result for `COc1cnc(C(F)F)cc1-c1cc(-n2ccc(C)cc2=O)ncc1C(=O)Nc1nnc(COC(C)(C)C)s1` [Compound 578] reads 25 nM; that for `COc1cnc(C(F)F)cc1-c1cc(C#CCN2CCCCC2)ncc1C(=O)Nc1nnc(C#CC2CC2)s1` [Compound 589], 0.7 nM.
The figure for `C#C[C@H]1C[C@@H]1c1nnc(NC(=O)c2cnc(-n3cccc(Cl)c3=O)cc2-c2cc(C(F)F)ncc2OC)s1` [Compound 591] is under 0.25 nM.

The values above are taken from patent publication US20260022114A1, “N-(5-SUBSTITUTED-[(1,3,4-THIADIAZOLYL) OR (1,3-THIAZOLYL)](SUBSTITUTED)CARBOXAMIDE COMPOUNDS, PHARMACEUTICAL COMPOSITIONS, AND METHODS OF PREPARING THE AMIDE COMPOUNDS AND OF THEIR USE” (Repare Therapeutics Inc., priority 2022, published 2026).
